Source: ChEMBL document CHEMBL1150092, “Isolation and characterization of cytotoxic and antibacterial tetrasaccharide glycosides from Ipomoea stans” (1995)
In brackets after ≈: the same amount, converted by molar mass.

Columns and labels:
P388 = assay: Cytotoxicity against mouse P388 cells; assay type: functional; details: read-out: ED50 (the source's name)
Staphylococcus aureus = assay: Antimicrobial activity against Staphylococcus aureus ATCC 6538; assay type: functional, organism-based
Bacillus subtilis = assay: Antimicrobial activity against Bacillus subtilis ATCC 6633; assay type: functional, organism-based

| Compound | EC50 (P388) | MIC (Staphylococcus aureus) | MIC (Bacillus subtilis) |
| --- | --- | --- | --- |
| CCCCC[C@H]1CCCCCCCCCC(=O)O[C@H]2[C@H](O)[C@@H](CO)O[C@@H](O[C@H]3[C@H](O1)O[C@H](C)[C@H](O)[C@@H]3O)[C@@H]2O[C@@H]1O[C@@H](C)[C@H](OC(=O)[C@@H](C)CC)[C@@H](O[C@@H]2O[C@@H](C)[C@H](O)[C@@H](O)[C@H]2O)[C@H]1OC(=O)[C@@H](C)CC [TRICOLORIN A] | 2.2 µg/mL (≈ 2.15 µM) | – | – |
| NYSTATIN | – | 8 µg/mL | 16 µg/mL |
